Assay results as given in US10274488B2, “Glycan arrays on PTFE-like aluminum coated glass slides and related methods” (Academia Sinica, priority 2008, dated 2019).

Columns and labels:
cellulase from A. niger = assay: Enzymatic hydrolysis on the PTFE-like ACG slide with cellulase from A. niger, MS-TOF readout; format: biochemical, Aspergillus niger; conditions: reaction on the ACG slide
Method: (§1) Enzymatic hydrolysis of the immobilized poly-fluorinated cellobiose 8 (see FIG. 14) was first conducted in situ on the phosphonic acid slide surface. Three commercially available cellulases, Aspergillus niger (A. niger), Trichoderma reesei (T. reesei), and Trichoderma viride (T. viride) were prepared separately at 5 U/mL in a sodium acetate (25 mM) buffer solution (pH 5) and loaded onto the functionalized slide which has been divided into 16 wells using Fast Frame reaction chambers. For comparison, an aliquot of enzyme solution (100 μL) was added to the solution of fluorinated cellobiose (100 μL of 0.5 mM) in eppendorfs to carry out the enzymatic hydrolysis reactions in solution. After the reaction, it was transferred to the empty wells of the same slide. Each well was rinsed separately three times with de-ionized water and the slide was dried again under high vacuum before subjecting to MS-TOF analysis.
(§2) Under MS-TOF analysis, the clean background baseline allowed calculation of the percentage of hydrolyzed components for each sample. As shown in the MS-TOF results in FIG. 20, percentages of hydrolyzed products are calculated from the peak intensities of each spectrum. According to implementations of experimental data shown in FIG. 20, MS-TOF data of enzymatic hydrolysis of poly-fluorinated cellobiose in solution in FIG. 20A and immobilized on PTFE-like ACG slide in FIG. 20B. The control are the same experimental conditions run without enzymes in (a); (b), (c), and (d) are experimental conditions with the cellulase proteins from A. niger (b), T. reesei (c), and T. viride (d).
(§3) Cellulase was prepared (5 U/mL in 25 mM pH 5.05 NaOAc buffer solution). Substrate was also dissolved in NaOAc buffer solution (25 mM, pH 5.05) to give 0.5 mM substrate solution. Add 50 μL cellulase solution to 50 μL substrate solution onto the glass slide which was loaded in FAST® Frame multi-slide plate to have a 2.5 U/mL cellulase solution with 0.25 mM substrate. The well of the plate was sealed and the whole assembly was incubated in 37° C. for 18 hours. Put the slide in dry box to remove the water, and then use high vacuum to remove trace water. 100 uL water was used to rinse each well of the FAST® Frame multi-slide plate to solve and remove the salt of the buffer solution. Remove any residual water on the plate by high vacuum and then analyzed the slide by MALDI-TOF Ultra-Flex II.

cellulase from T. reesei = assay: Enzymatic hydrolysis on the PTFE-like ACG slide with cellulase from T. reesei, MS-TOF readout; format: biochemical, Trichoderma reesei; conditions: reaction on the ACG slide, pH 5
Method: as §1, §2, §3

cellulase from T. viride = assay: Enzymatic hydrolysis on the PTFE-like ACG slide with cellulase from T. viride, MS-TOF readout; format: biochemical, Trichoderma viride; conditions: reaction on the ACG slide, pH 5
Method: as §1, §2, §3

exoglucanase L3 = assay: Enzymatic hydrolysis on the PTFE-like ACG surface with exoglucanase L3, MS-TOF assay; format: biochemical, Clostridium thermocellum; conditions: substrate immobilized on the PTFE-like ACG surface, 24 hours of incubation
Method: For each carbohydrate, a specific enzyme was added: (a) is the control run without enzymes, (b) is exoglucanase L3, and (c) is endoglucanase 44A. […]
For comparison and as illustrated according to implementations shown in FIG. 23, substrate 8, 9, and 10 were immobilized on the PTFE-like ACG surface and carried out the cellulase hydrolysis on the surface directly, after the same washing procedures, these slides were subjected to MS-TOF assay. […] The endoglucanase 44A can't accept compound 8 or 9 as a substrate. […] From the above results, the cellotetraose substrate 10 was the best carbohydrate to create array on the PTFE-like ACG surface for the experiments conducted. By using this array, the activity and specificity of unknown cellulase may be examined.
as §3, with “The well of the plate was sealed and the whole assembly was incubated in 37° C. for 18 hours.” left out
The genomic DNA of Sulfolobus solfataricus (ATCC 35092) and Clostridium thermocellum (ATCC 27405) were obtained from the ATCC biological resource center. The Sso7d (NCBI accession number: AAK42090) gene fragment was amplified directly from the Sulfolobus solfataricus genome by polymerase chain reaction (PCR) with forward 5′ […] 3′ (SEQ ID NO: 1) and reverse 5′ […] 3′ (SEQ ID NO: 2) primers. […]

| Biose (un-hydrolyzed cellobiose), percentage of hydrolyzed pattern (cellulase from A. niger; pH 5) [%] | F-tail, percentage of hydrolyzed pattern (cellulase from A. niger; pH 5) | Glucose, percentage of hydrolyzed pattern (cellulase from A. niger; pH 5) [%] | Triose, percentage of hydrolyzed pattern (cellulase from A. niger; pH 5) [%] | Biose (un-hydrolyzed cellobiose), percentage of hydrolyzed pattern (cellulase from A. niger; pH 5, listed as cellobiose) [%] | Biose (un-hydrolyzed cellobiose), percentage of hydrolyzed pattern (cellulase from T. reesei) [%] | F-tail, percentage of hydrolyzed pattern (cellulase from T. reesei) [%] | Glucose, percentage of hydrolyzed pattern (cellulase from T. reesei) [%] | Triose, percentage of hydrolyzed pattern (cellulase from T. reesei) | Biose (un-hydrolyzed cellobiose), percentage of hydrolyzed pattern (cellulase from T. viride) [%] | F-tail, percentage of hydrolyzed pattern (cellulase from T. viride) [%] | Glucose, percentage of hydrolyzed pattern (cellulase from T. viride) [%] | Triose, percentage of hydrolyzed pattern (cellulase from T. viride) | Cleavage of the substrate by exoglucanase L3 (in words) (exoglucanase L3) | SMILES |
| --- | --- | --- | --- | --- | --- | --- | --- | --- | --- | --- | --- | --- | --- | --- |
| 1 | 0/0% | 0 | 0 | 100 | 69 | 7 | 25 | 0/0% | 77 | 6 | 17 | 0/0% | only cleaved a fraction | O=C(NCCCCCO[C@@H]1O[C@H](CO)[C@@H](O[C@@H]2O[C@H](CO)[C@@H](O)[C@H](O)[C@H]2O)[C@H](O)[C@H]1O)OCCCC(F)(F)C(F)(F)C(F)(F)C(F)(F)C(F)(F)C(F)(F)C(F)(F)C(F)(F)F [Compound 8, [(4,4,5,5,6,6,7,7,8,8,9,9,10,10,11,11,12,12,12-nonadecafluorododecoxycarbonyl-amino)pentyl] ß-D-cellobioside] |
|  |  |  |  |  |  |  |  |  |  |  |  |  | cleaved the cellobiose quickly | O=C(NCCCCCO[C@@H]1O[C@H](CO)[C@@H](O[C@@H]2O[C@H](CO)[C@@H](O[C@@H]3O[C@H](CO)[C@@H](O)[C@H](O)[C@H]3O)[C@H](O)[C@H]2O)[C@H](O)[C@H]1O)OCCCC(F)(F)C(F)(F)C(F)(F)C(F)(F)C(F)(F)C(F)(F)C(F)(F)C(F)(F)C(F)(F)F [Compound 9, [(4,4,5,5,6,6,7,7,8,8,9,9,10,10,11,11,12,12,12-nonadecafluorododecoxycarbonyl-amino)pentyl] ß-D-glucopyranosyl-(1→4)-ß-D-glucopyranosyl-(1→4)- -ß-D-glucopyranoside] |
